The subject of one series is MAO-A/B expression. The series is described as follows: MAO-A/B protein expression in HC- or DEX-stimulated BJ cells (Western blotting). In kind it is cell-based, human. The following applies: 10 μM HC 5 days or 100 μM DEX 7 days, then 50 μM compound; Western blot. As for the experimental part: (§1) The BJ cells were subsequently incubated with 10 μM HC or 100 μM DEX to stimulate MAO expression. […] The untreated BJ cells received normal growth medium. The cells were collected, homogenised, and analysed through Western blotting where the expression of MAO-A/B was determined through immunodetection of protein subtypes.

For the next series, the system named is T1, MAO-A.
T1 construct: endogenous in cells; host or cells: BJ human foreskin fibroblasts stimulated with DEX or HC
The experiment in a line: MAO-A activity assay in corticosteroid-stimulated BJ cells. In kind it is cell-based, human. The following applies: then 50 μM compound 24 h. How it is done: as §1
(§2) Activity assays were commercially sourced from BioVision (Abcam, BioVision ab241031, Waltham, MA, USA) and were performed according to manufacturer’s instructions. The treatment groups were plated in duplicate on a black, flat 96-well microplate. The cells were homogenised in assay buffer using a microtube mixer at 4 °C and centrifuged at 10,000× g for 10 min. A Bradford assay was performed to determine the total protein concentration within each cell pellet (200 μg/well for BJ cells, 40 μg/well for hESC-derived neurons). Approximately 40 μL of supernatant was loaded into wells along with 10 μL of either […], or assay buffer for total MAO activity. A H2O2 standard was pipetted as supplied and 50 μL of reaction mix was pipetted into all wells. Using a CLARIOstar Plus Microplate Reader, (BMG Labtech, Ortenberg, Germany), fluorescence was measured kinetically at 25 °C for 60 min with Ex/Em = 535/587 nm.

Series [1] deals with T2, MAO-B.
T2 construct: endogenous in cells; host or cells: BJ human foreskin fibroblasts stimulated with DEX or HC
The experiment in a line: MAO-B activity assay in corticosteroid-stimulated BJ cells. In kind it is cell-based, human. The following applies: then 50 μM compound 24 h. How it is done:
as §1, §2

The next series deals with purified LSD1 (Homo sapiens, UniProt O60341). The series is described as follows: LSD1 direct screening assay (Epigentek inhibitory screening kit). As to conditions: direct incubation with purified LSD1, Epigentek kit; read-out: IC50, inhibition of LSD1. It is filed as biochemical. How it is done: Fluorescence was measured using a CLARIOstar Plus Microplate Reader (BMG Labtech, Ortenberg, Germany) at excitation and emission wavelengths of 530 nm and 590 nm, respectively (Ex/Em = 530/590 nm).

For another series, the target named is T3, purified MAO-B (Homo sapiens, UniProt P27338).
T3 construct: purchased Sigma-Aldrich MAK296
T3 sequence (P27338 1-520): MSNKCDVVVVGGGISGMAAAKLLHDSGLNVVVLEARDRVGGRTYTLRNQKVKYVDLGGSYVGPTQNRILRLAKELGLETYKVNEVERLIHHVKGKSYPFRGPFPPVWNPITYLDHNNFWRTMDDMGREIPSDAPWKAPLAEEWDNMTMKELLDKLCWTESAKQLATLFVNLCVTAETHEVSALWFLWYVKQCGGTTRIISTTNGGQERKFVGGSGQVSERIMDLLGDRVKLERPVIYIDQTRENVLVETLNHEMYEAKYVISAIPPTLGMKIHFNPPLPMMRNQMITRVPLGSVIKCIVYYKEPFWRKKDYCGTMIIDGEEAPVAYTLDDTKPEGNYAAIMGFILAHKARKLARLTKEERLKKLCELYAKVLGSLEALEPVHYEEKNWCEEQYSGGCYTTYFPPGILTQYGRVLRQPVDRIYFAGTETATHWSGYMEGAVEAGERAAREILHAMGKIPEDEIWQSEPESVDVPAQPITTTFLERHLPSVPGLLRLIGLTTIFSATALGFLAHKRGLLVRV
The series is described as follows: MAO-B direct screening assay (inhibitor screening kit). It is filed as biochemical. As to conditions: purified enzyme; read-out: IC50, inhibition of MAO-B. As for the experimental part:
The assays were conducted for MAO-A and MAO-B according to the manufacturer’s instructions.

Another series has as its system BJ cells. The experiment in a line: Viability of BJ cells (CellTiter-Blue Cell Viability Assay). In kind it is cell-based, human. The following applies: for IC50: Homo sapiens, BJ. How it is done: The BJ cells were seeded at densities of 10,000 cells in black flat bottom 96-well plates (Nalge Nunc, Penfield, Rochester, NY, USA) and treated with a dose–response of OLC (0–500 μM) and OLP (0–500 μM) for 24 h, 48 h, 72 h, and 7 days at 37 °C, 5% (v/v) CO2. Cell viability was measured using the Cell-Titer Blue® Assay kit (Promega, Madison, WI, USA) according to the manufacturer’s instructions. Cell-Titer Blue reagent was added to each well and incubated for 4 h at 37 °C with 5% (v/v) CO2 before the fluorescence intensity was read using the CLARIOstar Microplate Reader (BMG Labtech, Ortenberg, Germany).
A Nikon Eclipse Ts2 light microscope (Nikon Ti TS2-S-SM, Tokyo, Japan) was used to image untreated and treated BJ cells (OLP or OLC: 0–100 μM) at 4× objective magnification at 20, 44, and 120 h (Figures S1 and S2).

For series [2], the system named is total MAO. The experiment in a line: Total MAO activity assay in corticosteroid-stimulated BJ cells. In kind it is cell-based, human. As to conditions: then 50 μM compound 24 h. As for the experimental part: as §1, §2
In series [3] the test system is T2, MAO-B. The experiment in a line: MAO-B activity assay in hESC-derived neurons stimulated with ATRA. It is filed as cell-based, human. As to conditions: 1 μM ATRA 24 h, then TCP 5 μM, OLC 50 μM or OLP 50 μM for 24 h. How it is done:
(§3) An in vitro model of MDD was designed for stem cell-derived neuronal cells through incubation of 1 μM all-trans retinoic acid (Sigma-Aldrich PHR1187, St. Louis, MO, USA). All cell treatments were conducted in duplicate and replicated using independently differentiating neuronal plates.
as §2

Series [4] relates to T4, LSD1.
T4 construct: nuclear proteins extracted from the BJ cultures were directly assayed for LSD1 activity; endogenous in cells; host or cells: BJ human foreskin fibroblasts (nuclear extract, DEX-stimulated)
The experiment in a line: LSD1 activity in nuclear extracts of BJ cells stimulated with DEX. In kind it is cell-based, human. As to conditions: DEX 50 μM 72 h, then TCP 5 μM or OLP, HT, HTA 50 μM for 48 h.
Description: Histone demethylase LSD1 activity assay
4µL of nuclear extracts containing 5µg protein was added to designated strip wells with stably
captured LSD1 substrate (H3K4me2), followed by an additional 26µL of H3K4me2 (HG3)
substrate diluted in assay buffer (HG2). In no enzyme control wells, the 4µL of nuclear
extracts was replaced with 4µL of assay buffer. Blank wells contained 30µL of assay buffer.
A standard curve was generated by adding 1µL of standard (HG4) at incrementally increasing
concentrations (0.1-10ng/µL) to 29µL of assay buffer in designated standard wells. After all
wells were loaded appropriately, the assay plate was incubated away from light at room
temperature for 60 minutes. Following incubation, contents were aspirated and wells were
washed three times with 150µL of wash buffer (HG1). 50µL of capture antibody (HG5)
diluted at a 1:1000 ratio was then added to all wells before incubating at room temperature
for 60 minutes on a rotating platform. Well contents were then aspirated and washed four
times with 150µL of wash buffer. 50µL of detection antibody (HG6) diluted at a 1:1000 ration
was then added to each well. Assay plate was then incubated for a final time at room
temperature for 30 minutes. Well contents were aspirated again, followed by six washes with
150µL wash buffer. 50µL of fluoro-developer (HG7) was then added into each well and
allowed to develop away from light for 1-5 minutes. Fluorescence was then read on a
CLARIOstar Microplate Reader (BMG Labtech, Ortenberg Germany) at Ex/Em =

Series [5] relates to total MAO. The series is described as follows: Total MAO activity assay in hESC-derived neurons stimulated with ATRA. It is filed as cell-based, human. The following applies: 1 μM ATRA 24 h, then TCP 5 μM, OLC 50 μM or OLP 50 μM for 24 h. How it is done: as §3, §2
Series [6] deals with T5, LSD1 (Homo sapiens, UniProt O60341).
T5 construct: Reaction Biology Corporation (performed the assay)
The experiment in a line: LSD1 fluorescence coupling enzyme assay (Reaction Biology Corporation). In kind it is biochemical. As to conditions: Reaction Biology Corp., 30 min pre-incubation, 10 μM histone H3(1-21)K4me2 peptide substrate; read-out: IC50, LSD1 demethylase activity. As for the experimental part: The inhibitory activity of HCl 489479, OLC, and OLP was measured using a fluorescence coupling enzyme assay (performed by Reaction Biology Corporation). […] All compounds were pre-incubated for 30 min with the enzyme before the addition of 10 μM histone H3(1-21)K4me2 peptide substrate to start the reaction. Fluorescence was measured using an EnVision Multimode Plate Reader at Ex/Em = 535/590.

Results on one compound are retold here after publication PMC11173677, “Identification and Evaluation of Olive Phenolics in the Context of Amine Oxidase Enzyme Inhibition and Depression: In Silico Modelling and In Vitro Validation” (Molecules, 2024).

As to `COC(=O)[C@H](O)CC(=O)OCCc1ccc(O)c(O)c1` [OLP, oleohydroxypyretol], the “MAO enzyme expression within BJ cells” value in the series with MAO-A/B expression is recorded as “Potent inhibition”. In addition, the “MAO-A activity in BJ cells” value with MAO-A (10 μM HC 5 days) and in the series on MAO-A (100 μM DEX 7 days) was “downregulate” throughout. For the same compound, the “MAO-B activity in BJ cells” value with MAO-B [1] (10 μM HC 5 days) and in the series with MAO-B [1] (100 μM DEX 7 days) was “downregulate” in each case. For the same compound, the half-inhibitory concentration (IC50) amounted to 0.8 µM at purified LSD1; 32 µM on purified MAO-B; 220 µM with BJ cells (24 h); 257 µM in the series on BJ cells (48 h); 0.12 µM on LSD1 [6]. Moreover, the “relative viability of BJ cells at the highest concentration” value with BJ cells (500 μM) is listed as “decreased”. In addition, the “proliferation potential of BJ cells” value in the series on BJ cells (25, 50, 75 and 100 μM, similar to untreated cells) is recorded as “maintained their proliferation potential”. In the series with BJ cells (concentrations used in further experiments (50 μM)), the “toxicity to BJ cells at the concentrations used in further experiments” value was “non-toxic”. Moreover, in the series with BJ cells (up to 200 μM), the “viability of BJ cells at lower concentrations” value is given as “largely maintained”. Further, the “total MAO activity in BJ cells” value with total MAO [2] (10 μM HC 5 days) and in the series on total MAO [2] (100 μM DEX 7 days) was “downregulate” each time. In addition, the “MAO-B activity in hESC-derived neurons” value in the series with MAO-B [3] is “significantly reduced”. Besides, the “LSD1 activity in BJ cultures stimulated with DEX” value in the series on LSD1 [4] is “significant reduction”. Moreover, in the series with total MAO [5], the “total MAO activity in hESC-derived neurons” value is recorded as “significantly reduced”.
